Laboratory results from PMC6986443, “T‐495, a novel low cooperative M1 receptor positive allosteric modulator, improves memory deficits associated with cholinergic dysfunction and is characterized by low gastrointestinal side effect risk” (Pharmacology Research & Perspectives, 2020).

Legend:
[1] = test system: CaMKIIα‐tTA/A53T α‐syn dTg mice; test: Contextual fear conditioning (CFC) test; format: in vivo, mouse
Procedure: The CFC test was performed in a clear conditioning chamber (33 cm wide, 25 cm long, and 28 cm high; O’Hara & Co., Ltd.) surrounded by a sound‐attenuating box. The illumination in the chamber was maintained at 100 lux. Conditioned stimulus (CS) and unconditioned stimulus (US) were automatically delivered by a tone generator and a shock generator (O’Hara & Co., Ltd.), respectively. On Day 1 (habituation phase), vehicle was orally administered, and mice were placed in the conditioning chamber. They were allowed to freely explore for 120 seconds and then returned to their home cages. […] Mice were placed in the chamber for 120 seconds before the onset of a tone (CS, 60 dB for 30 s). The last 2 seconds of the CS were paired with a foot shock (US, 0.25 mA), and mice were removed and returned to their home cages 180 seconds after the US. […] Mice were again placed in the same chamber for 180 seconds. Freezing behavior was analyzed using ImageJ FZ4 (O’Hara & Co., Ltd.) during the conditioning and retention phases.

Potassium channel (KATP) = test: Selectivity panel; format: binding
Text: (§1) The selectivity of T‐495 at 10 μmol/L against a panel of 106 targets, including receptors, enzymes, ion channels, and transporters, was characterized (Eurofins Panlabs Taiwan Ltd., Taipei, Taiwan).

Cannabinoid CB1 = biological target: T1, Cannabinoid CB1 (Homo sapiens, UniProt P21554); test: Selectivity panel; format: binding
T1 construct: purchased Eurofins Panlabs Taiwan Ltd
Text: as §1

Calcium channel N-type = biological target: T2, Calcium channel N-type (Rattus norvegicus, UniProt Q02294); test: Selectivity panel; format: binding
T2 construct: purchased Eurofins Panlabs Taiwan Ltd
T2 sequence (Q02294 whole entry): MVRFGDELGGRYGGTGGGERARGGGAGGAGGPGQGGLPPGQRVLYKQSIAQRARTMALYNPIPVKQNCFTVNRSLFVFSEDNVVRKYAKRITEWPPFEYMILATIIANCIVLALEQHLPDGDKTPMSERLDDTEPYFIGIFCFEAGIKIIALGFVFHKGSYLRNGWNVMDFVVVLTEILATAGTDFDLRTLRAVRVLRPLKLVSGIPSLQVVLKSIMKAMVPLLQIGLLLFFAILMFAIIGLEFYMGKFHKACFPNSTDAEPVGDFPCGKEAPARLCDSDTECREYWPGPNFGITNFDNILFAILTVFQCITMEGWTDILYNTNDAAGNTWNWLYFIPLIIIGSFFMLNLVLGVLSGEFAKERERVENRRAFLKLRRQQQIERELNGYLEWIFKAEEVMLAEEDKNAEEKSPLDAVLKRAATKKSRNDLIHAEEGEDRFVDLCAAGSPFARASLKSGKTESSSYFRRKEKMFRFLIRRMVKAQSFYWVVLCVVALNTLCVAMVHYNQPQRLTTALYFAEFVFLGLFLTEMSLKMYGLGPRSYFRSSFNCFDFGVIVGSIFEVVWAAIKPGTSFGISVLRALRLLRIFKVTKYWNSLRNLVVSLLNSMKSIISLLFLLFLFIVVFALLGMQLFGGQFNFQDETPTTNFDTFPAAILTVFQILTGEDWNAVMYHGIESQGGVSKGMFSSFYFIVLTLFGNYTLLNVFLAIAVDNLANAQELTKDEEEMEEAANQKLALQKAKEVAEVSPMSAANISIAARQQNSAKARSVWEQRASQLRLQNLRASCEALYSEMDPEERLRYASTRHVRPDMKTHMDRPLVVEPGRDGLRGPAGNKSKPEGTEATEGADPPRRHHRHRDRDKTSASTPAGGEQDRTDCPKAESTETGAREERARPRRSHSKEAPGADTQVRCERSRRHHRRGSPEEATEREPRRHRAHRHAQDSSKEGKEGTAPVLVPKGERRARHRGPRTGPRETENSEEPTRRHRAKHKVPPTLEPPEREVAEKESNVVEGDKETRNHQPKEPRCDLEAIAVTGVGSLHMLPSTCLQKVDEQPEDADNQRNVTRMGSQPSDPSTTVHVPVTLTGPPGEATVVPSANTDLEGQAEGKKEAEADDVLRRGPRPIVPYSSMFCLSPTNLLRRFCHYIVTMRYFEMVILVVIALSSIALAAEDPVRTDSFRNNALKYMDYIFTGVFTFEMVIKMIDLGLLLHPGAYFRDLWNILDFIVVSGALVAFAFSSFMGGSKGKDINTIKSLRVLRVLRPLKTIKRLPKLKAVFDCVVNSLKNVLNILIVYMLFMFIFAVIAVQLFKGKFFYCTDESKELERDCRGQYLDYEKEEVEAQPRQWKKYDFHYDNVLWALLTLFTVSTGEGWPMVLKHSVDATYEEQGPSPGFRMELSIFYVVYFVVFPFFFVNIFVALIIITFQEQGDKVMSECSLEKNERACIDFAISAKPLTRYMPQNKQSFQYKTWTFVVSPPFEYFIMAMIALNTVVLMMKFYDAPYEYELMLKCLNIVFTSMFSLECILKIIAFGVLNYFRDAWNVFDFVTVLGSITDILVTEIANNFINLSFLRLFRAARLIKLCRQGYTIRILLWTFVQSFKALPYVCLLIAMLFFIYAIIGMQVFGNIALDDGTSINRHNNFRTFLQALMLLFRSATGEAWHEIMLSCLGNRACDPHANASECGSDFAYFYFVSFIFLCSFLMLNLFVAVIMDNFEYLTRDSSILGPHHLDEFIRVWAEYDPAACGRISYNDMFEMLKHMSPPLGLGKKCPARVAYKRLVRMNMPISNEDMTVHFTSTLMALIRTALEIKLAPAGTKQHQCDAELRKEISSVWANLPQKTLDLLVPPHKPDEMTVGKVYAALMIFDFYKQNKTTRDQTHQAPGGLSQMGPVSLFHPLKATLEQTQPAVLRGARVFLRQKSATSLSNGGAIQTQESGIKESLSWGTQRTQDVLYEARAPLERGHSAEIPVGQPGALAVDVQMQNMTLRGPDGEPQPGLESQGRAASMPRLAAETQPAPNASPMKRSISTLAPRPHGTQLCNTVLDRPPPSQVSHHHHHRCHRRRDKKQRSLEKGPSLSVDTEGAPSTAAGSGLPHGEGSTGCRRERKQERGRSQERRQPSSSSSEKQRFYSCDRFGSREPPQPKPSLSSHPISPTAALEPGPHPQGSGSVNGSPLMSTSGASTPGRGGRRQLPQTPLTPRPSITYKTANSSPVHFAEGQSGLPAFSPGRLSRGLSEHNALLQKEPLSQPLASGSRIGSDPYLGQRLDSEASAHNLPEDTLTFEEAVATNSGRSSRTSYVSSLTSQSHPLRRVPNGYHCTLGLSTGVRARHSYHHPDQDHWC
Text: as §1

[2] = biological target: T3, Cholecystokinin CCK2 (CCKB) (Homo sapiens, UniProt P32239); test: Selectivity panel; format: binding
T3 construct: purchased Eurofins Panlabs Taiwan Ltd
T3 sequence (P32239 whole entry): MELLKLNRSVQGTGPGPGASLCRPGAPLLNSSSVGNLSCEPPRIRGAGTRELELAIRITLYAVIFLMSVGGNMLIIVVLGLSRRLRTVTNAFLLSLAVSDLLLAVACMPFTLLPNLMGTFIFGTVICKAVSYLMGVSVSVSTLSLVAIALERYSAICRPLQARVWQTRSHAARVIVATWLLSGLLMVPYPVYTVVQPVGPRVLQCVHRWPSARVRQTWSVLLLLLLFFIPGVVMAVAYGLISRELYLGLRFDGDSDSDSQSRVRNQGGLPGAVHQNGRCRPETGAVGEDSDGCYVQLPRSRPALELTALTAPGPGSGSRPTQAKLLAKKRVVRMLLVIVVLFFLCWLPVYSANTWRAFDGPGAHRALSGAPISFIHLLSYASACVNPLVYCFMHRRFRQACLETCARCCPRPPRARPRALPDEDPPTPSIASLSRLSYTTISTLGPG
Text: as §1

Angiotensin AT1 = biological target: T4, Angiotensin AT1 (Homo sapiens, UniProt P30556); test: Selectivity panel; format: binding
T4 construct: purchased Eurofins Panlabs Taiwan Ltd
T4 sequence (P30556 whole entry): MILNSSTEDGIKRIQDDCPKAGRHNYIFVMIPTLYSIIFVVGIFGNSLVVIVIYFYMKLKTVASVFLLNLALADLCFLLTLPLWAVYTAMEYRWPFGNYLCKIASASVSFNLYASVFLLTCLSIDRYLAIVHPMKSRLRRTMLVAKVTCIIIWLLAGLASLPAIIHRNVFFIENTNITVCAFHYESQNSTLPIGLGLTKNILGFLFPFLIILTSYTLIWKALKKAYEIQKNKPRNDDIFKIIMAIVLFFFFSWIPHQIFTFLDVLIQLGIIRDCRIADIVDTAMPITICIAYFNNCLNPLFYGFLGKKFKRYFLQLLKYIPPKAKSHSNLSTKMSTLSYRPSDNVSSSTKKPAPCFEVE
Text: as §1

Histamine H2 = biological target: T5, Histamine H2 (Homo sapiens, UniProt P25021); test: Selectivity panel; format: binding
T5 construct: purchased Eurofins Panlabs Taiwan Ltd
T5 sequence (P25021 whole entry): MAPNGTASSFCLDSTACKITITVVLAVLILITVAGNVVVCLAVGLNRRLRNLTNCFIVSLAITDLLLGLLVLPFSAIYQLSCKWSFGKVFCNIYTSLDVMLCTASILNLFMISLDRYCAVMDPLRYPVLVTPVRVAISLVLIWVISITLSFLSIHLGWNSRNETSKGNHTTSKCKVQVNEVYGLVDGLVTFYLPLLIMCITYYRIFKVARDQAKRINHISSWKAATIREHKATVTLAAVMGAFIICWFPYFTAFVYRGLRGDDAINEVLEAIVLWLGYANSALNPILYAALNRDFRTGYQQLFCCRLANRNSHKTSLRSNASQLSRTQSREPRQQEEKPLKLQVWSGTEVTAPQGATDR
Text: as §1

Glutamate, NMDA, glycine = test: Selectivity panel; format: binding
Text: as §1

Adenosine A2A = biological target: T6, Adenosine A2A (Homo sapiens, UniProt P29274); test: Selectivity panel; format: binding
T6 construct: purchased Eurofins Panlabs Taiwan Ltd
T6 sequence (P29274 whole entry): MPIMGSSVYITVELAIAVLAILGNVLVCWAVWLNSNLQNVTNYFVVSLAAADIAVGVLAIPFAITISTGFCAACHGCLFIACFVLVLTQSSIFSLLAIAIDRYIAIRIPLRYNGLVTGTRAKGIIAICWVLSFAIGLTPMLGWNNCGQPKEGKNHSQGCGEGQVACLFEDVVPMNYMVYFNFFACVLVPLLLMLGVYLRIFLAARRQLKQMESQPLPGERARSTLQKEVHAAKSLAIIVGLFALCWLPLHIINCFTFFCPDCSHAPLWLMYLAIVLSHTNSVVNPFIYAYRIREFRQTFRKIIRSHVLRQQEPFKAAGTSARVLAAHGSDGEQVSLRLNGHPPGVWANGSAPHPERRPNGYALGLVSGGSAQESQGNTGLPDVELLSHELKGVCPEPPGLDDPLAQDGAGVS
Text: as §1

[3] = test system: Glutamate, NMDA, phencyclidine; test: Selectivity panel; format: binding
Text: as §1

Melatonin MT1 = biological target: T7, Melatonin MT1 (Homo sapiens, UniProt P48039); test: Selectivity panel; format: binding
T7 construct: purchased Eurofins Panlabs Taiwan Ltd
T7 sequence (P48039 whole entry): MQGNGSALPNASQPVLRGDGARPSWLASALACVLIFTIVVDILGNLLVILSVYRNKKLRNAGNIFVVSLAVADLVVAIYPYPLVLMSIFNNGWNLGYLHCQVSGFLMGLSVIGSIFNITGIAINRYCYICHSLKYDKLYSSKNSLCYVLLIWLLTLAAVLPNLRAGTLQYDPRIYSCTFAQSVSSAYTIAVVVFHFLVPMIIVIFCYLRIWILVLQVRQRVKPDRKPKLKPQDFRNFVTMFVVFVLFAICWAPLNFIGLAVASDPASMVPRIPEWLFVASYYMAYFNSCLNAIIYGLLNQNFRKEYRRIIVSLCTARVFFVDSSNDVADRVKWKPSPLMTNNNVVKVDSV
Text: as §1

[4] = biological target: T8, Growth hormone secretagogue (ghrelin) (Homo sapiens, UniProt Q92847); test: Selectivity panel; format: binding
T8 construct: purchased Eurofins Panlabs Taiwan Ltd
T8 sequence (Q92847 whole entry): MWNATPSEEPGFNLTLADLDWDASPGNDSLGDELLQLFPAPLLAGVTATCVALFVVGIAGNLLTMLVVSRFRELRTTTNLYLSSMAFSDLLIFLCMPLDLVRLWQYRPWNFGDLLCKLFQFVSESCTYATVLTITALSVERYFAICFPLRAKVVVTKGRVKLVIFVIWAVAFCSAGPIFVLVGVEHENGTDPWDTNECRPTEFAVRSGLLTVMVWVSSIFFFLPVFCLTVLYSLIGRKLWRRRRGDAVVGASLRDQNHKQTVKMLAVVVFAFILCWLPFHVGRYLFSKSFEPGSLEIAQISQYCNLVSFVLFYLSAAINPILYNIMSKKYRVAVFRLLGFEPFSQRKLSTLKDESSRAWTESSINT
Text: as §1

Adrenergic β2 = biological target: T9, Adrenergic β2 (Homo sapiens, UniProt P07550); test: Selectivity panel; format: binding
T9 construct: purchased Eurofins Panlabs Taiwan Ltd
T9 sequence (P07550 whole entry): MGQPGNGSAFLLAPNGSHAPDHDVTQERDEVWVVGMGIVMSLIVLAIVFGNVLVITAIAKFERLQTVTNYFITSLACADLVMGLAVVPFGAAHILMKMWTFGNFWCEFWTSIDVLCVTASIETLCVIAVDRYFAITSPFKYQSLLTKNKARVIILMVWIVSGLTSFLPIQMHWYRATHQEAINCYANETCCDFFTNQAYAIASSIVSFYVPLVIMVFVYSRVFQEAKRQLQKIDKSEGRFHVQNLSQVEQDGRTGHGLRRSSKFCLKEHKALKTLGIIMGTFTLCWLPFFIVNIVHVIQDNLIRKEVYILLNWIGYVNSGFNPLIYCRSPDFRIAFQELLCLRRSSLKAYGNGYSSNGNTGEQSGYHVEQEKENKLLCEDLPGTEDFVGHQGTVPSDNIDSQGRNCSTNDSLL
Text: as §1

GABAB1A = biological target: T10, GABAB1A (Homo sapiens, UniProt Q9UBS5); test: Selectivity panel; format: binding
T10 construct: purchased Eurofins Panlabs Taiwan Ltd
Text: as §1

Glutamate, AMPA = test: Selectivity panel; format: binding
Text: as §1

Dopamine D4.2 = test: Selectivity panel; format: binding
Text: as §1

Imidazoline I2, central = test: Selectivity panel; format: binding
Text: as §1

Vasopressin V2 = biological target: T11, Vasopressin V2 (Homo sapiens, UniProt P30518); test: Selectivity panel; format: binding
T11 construct: purchased Eurofins Panlabs Taiwan Ltd
Text: as §1

Potassium channel (SKCA) = test: Selectivity panel; format: binding
Text: as §1

[5] = test system: panel of 106 targets, including receptors, enzymes, ion channels, and transporters; test: Selectivity panel (Eurofins Panlabs), overall; conditions: 10 μmol/L
Text: as §1

patients with AD = test system: patients with AD; design: method as in PMID 29955661; conditions: cited from earlier work

## Cc1c(Cc2ccc(Cl)nc2)cc2c(c1Cl)OCN([C@H]1CCC[C@@H]1O)C2=O [T‐495, 8‐chloro‐6‐((6‐chloropyridin‐3‐yl)methyl)‐3‐((1S,2S)‐2‐hydroxycyclopentyl)‐7‐methyl‐2,3‐dihydro‐4H‐1,3‐benzoxazin‐4‐one]
[1]; 3 mg/kg p.o.
  level of freezing behavior during the conditioning phase: did not change
[1]; 3 mg/kg p.o. 1 h before conditioning and retention
  reduced level of freezing behavior during the retention phase: significantly reversed
Potassium channel (KATP)
  % inhibition at 10 μM: 2%
Cannabinoid CB1
  inhibition at 10 µM: 14%
Calcium channel N-type
  inhibition at 10 µM: 0%
[2]
  inhibition at 10 µM: 10%
Angiotensin AT1
  inhibition at 10 µM: 23%
Histamine H2
  inhibition at 10 µM: 22%
Glutamate, NMDA, glycine
  % inhibition at 10 μM: 15%
Adenosine A2A
  inhibition at 10 µM: -4%
[3]
  % inhibition at 10 μM: 3%
Melatonin MT1
  inhibition at 10 µM: 29%
[4]
  inhibition at 10 µM: 8%
Adrenergic β2
  inhibition at 10 µM: 15%
GABAB1A
  inhibition at 10 µM: 5%
Glutamate, AMPA
  % inhibition at 10 μM: 20%
Dopamine D4.2
  % inhibition at 10 μM: 3%
Imidazoline I2, central
  % inhibition at 10 μM: 76%
Vasopressin V2
  inhibition at 10 µM: -7%
Potassium channel (SKCA)
  % inhibition at 10 μM: 1%
[5]
  significant inhibition or stimulation (≥50%) in panel of 106 targets: No significant inhibition or stimulation (≥50%) was observed, except for two targets

## Cc1ccc(Cc2cc3c(=O)n([C@H]4CCCC[C@@H]4O)cnc3c3ccccc23)cn1 [MK‐7622, 3‐((1S,2S)‐2‐hydroxycyclohexyl)‐6‐((6‐methylpyridin‐3‐yl)methyl)benzo[h]quinazolin‐4(3H)‐one, reference compound]
Patients with AD
  cognition as adjunctive therapy with AChEIs: did not improve cognition
Patients with AD; estimated effective dose
  patients affected by diarrhea: 15%
